Data taken from patent US8815590B2, “Composition and method for differentiation of human embryonic stem cells” (Stem Cells for Safer Medicines Limited, priority 2009, dated 2014).

Tests used:
Human ESCs [SHEF3] = assay: Flow cytometry of pluripotency surface markers Tra-1-60 and SSEA4 in treated human ESCs; type: cell-based
Protocol: (A) Images show typical colonies formed following the indicated treatments. The scale bars represent 1 mm. (B) Histogram plots of ESCs analysed by flow cytometry following immunostaining with antibodies against the pluripotency markers Tra-1-60 or SSEA4. (C) RNA was extracted from the cells and RT-PCR analyses performed using primers specific to the pluripotency genes OCT4 and NANOG and to the house-keeping gene β-ACTIN. (D) Western blot analysis was performed on protein extracted from the cells and immunoblotted with antibodies specific to Oct4. Blots were stripped and reprobed with anti-Gapdh antibodies to assess equal loading. […] SHEF3 cells were treated with the indicated concentration of 1O for 7 days. Images show typical colony morphology. (F) Histogram plots of ESCs analysed by flow cytometry following staining with Tra-1-60 and SSEA4 antibodies. Analysis of percent positive cells and mean fluorescent intensity are indicated on the plots. (G) RT PCR analysis for the expression of OCT4 and NANOG. Bands for each of the genes were from the same gel with intervening samples removed. (H) Western blot analysis of OCT4 protein expression. Proteins bands were from the same immunoblot with intervening samples removed.
SHEF1 and SHEF3 human ESCs were obtained from the UKSCB and cultured as outlined in their protocols. Briefly, ESCs were maintained on mitomycin C-inactivated mouse embryonic fibroblast (MEF) feeder layers in KnockOut Dulbecco's modified Eagle's medium (KO DMEM) (Invitrogen) supplemented with 20% (vol/vol) KO serum replacement (KOSR; Invitrogen), 1 mM non-essential amino acids (NEAA; Invitrogen), 1 mM glutamine (Invitrogen), 0.1 mM 2-mercaptoethanol (BioRad), penicillin/streptomycin, and 4 ng/ml recombinant human FGF2 (Peprotech). Cultures were passage using 1 mg/ml collagenase at a ratio of 1:8 to 1:12 every 7 days. Cultures were transferred to a feeder-free, chemically defined culture system on ESC-qualified Matrigel® (BD) coated plates in mTeSR1® (Stem Cell Technologies) media according to Stem Cell Technologies' protocol.
ESCs were trypsinised (0.05% Trypsin-EDTA) for 10 minutes at 37° C. and resuspended in PBS containing 2% (v/v) FBS (FBS/PBS). […] Cells were washed and stained with secondary fluorescein isothiocyanate (FITC)-conjugated antibodies (SIGMA) for a further 30 minutes, if required. Flow cytometry was performed using a FACSCanto cytometer (Becton Dickenson) and the data were analysed with FACSDiva software. Dead cells were excluded for analyses based on forward and side scatter parameters.

ESCs [SHEF1] [1] = assay: Immunofluorescence of endoderm markers FoxA2 and HNF4α, percent positive cells; type: cell-based, human; conditions: 5 days
Protocol: (§1) (A) RNA was extracted from ESCs [SHEF1] cultured for 7 days in the presence of 2 μM 1M for the days indicated. RT-PCR analyses were performed using primers selective for the genes indicated. (B) ESCs [SHEF1] were treated with 2 μM 1M alone or in combination with 10 μM SB43125 (S) for the days indicated and RT-PCR performed on the extracted RNA. (C) ESCs [SHEF3] were treated with 1M alone or in combination with 100 ng/ml Activin A (A) for the days indicated and RT-PCR performed. (D). ESCs [SHEF1] were treated with 2 μM 1M, or 100 ng/ml ActivinA (A) alone or in combination with 1M for 5 days. Expression of the endoderm markers FoxA2 and HNF4α was analysed by immunofluorescence. The number of percent positive cells averaged from 3 fields of view +/−SD are indicated. Scale bar represents 50 μm. (E) ESCs [SHEF1] were treated with 2 μM 1M, or 100 ng/ml ActivinA (A) alone or in combination with 1M for 5 days. Expression of the DE marker CXCR4 was alaysed by flow cytometry.
ESCs were cultured on Matrigel®-coated lummox (Greiner Bio One) trays and fixed with 4% paraformaldehyde (PFA) for 20 minutes at room temperature. Cells were permeabilised in PBST (with 0.1% Triton X-100) and blocked in 10% blocking reagent (Roche) before incubating with primary antibodies in 2% blocking reagent overnight at 4° C. After washing in PBS, cells were incubated with FITC-conjugated secondary antibodies (Vector Labs) for 3 hours at room temperature. After further washing, the cells were stained with 4,6-diamidino-2-phenylindole (DAPI) (SIGMA), washed again and mounted in MOWIOL. The following antibodies and dilutions were used: goat-anti-FoxA2 (1:100, R&D. Systems), mouse anti-Sox17 (1:50, R&D Systems), rabbit anti-HNF4α (1:100, Santa Cruz), rabbit anti-AFP (1:100, DAKO), rabbit anti-TTR (1:100, DAKO). Images were captured on a Zeiss 510 Meta confocal microscope using a 40× objective.

ESCs [SHEF1] [2] = assay: Flow cytometry of the DE marker CXCR4; type: cell-based, human; conditions: 2 μM 1M, 100 ng/ml Activin A, alone or in combination, 5 days
Protocol: as §1
ESCs were trypsinised (0.05% Trypsin-EDTA) for 10 minutes at 37° C. and resuspended in PBS containing 2% (v/v) FBS (FBS/PBS). […] Flow cytometry was performed using a FACSCanto cytometer (Becton Dickenson) and the data were analysed with FACSDiva software. […]

ESCs [SHEF1] [3] = assay: RT-PCR of Activin/Nodal pathway and differentiation marker genes; type: cell-based, human; conditions: 2 μM, after 1 day, maintained up to 3 days, basal by day 7
Protocol: as §1
Total RNA was isolated and purified using TRIzol Reagent (Invitrogen), following the manufacturer's instructions. All RNA samples were treated with DNase I (Ambion) before cDNA synthesis to eliminate any contaminating genomic DNA. RNA (1 μg) was reverse transcribed into cDNA using Oligo(dT)15 (Promega) and SuperScript II (Invitrogen). Gene-specific PCR was carried out using primers and annealing temperatures outlined in Table 2.

[4] = MEF culture, concentration 0.5, 7 days
[5] = MEF culture, concentration 2, 7 days
[6] = mTeSR1, concentration 0.5, 7 days
[7] = mTeSR1, concentration 2, 7 days

SMILES: O=C1NC(=O)C2=C1c1cn(c3ccccc13)CCOCCOCCOCCOCCn1cc2c2ccccc21 [1M]
- Expression of pluripotency markers Tra-1-60 and SSEA4 by flow cytometry (in words) (Human ESCs [SHEF3]; 7 days treatment): dramatic decrease in expression
- Tra1-60 % pos (Human ESCs [SHEF3]; MEF culture, concentration 0.5 (unit not given), 7 days): 82.1%
- SSEA4 % pos (Human ESCs [SHEF3]; [4]): 90.4%
- SSEA4 mean (mean fluorescence intensity) (Human ESCs [SHEF3]; [4]): 5805
- Tra1-60 mean (mean fluorescence intensity) (Human ESCs [SHEF3]; [4]): 9403
- Tra1-60 % pos (Human ESCs [SHEF3]; MEF culture, concentration 2 (unit not given), 7 days): 18.9%
- SSEA4 % pos (Human ESCs [SHEF3]; [5]): 72.9%
- SSEA4 mean (mean fluorescence intensity) (Human ESCs [SHEF3]; [5]): 1656
- Tra1-60 mean (mean fluorescence intensity) (Human ESCs [SHEF3]; [5]): 1092
- Tra1-60 % pos (Human ESCs [SHEF3]; mTeSR1 (feeder-free, Matrigel), concentration 0.5, 7 days): 85.9%
- Tra1-60 % pos (Human ESCs [SHEF3]; mTeSR1 (feeder-free, Matrigel), concentration 2, 7 days): 25.6%
- SSEA4 % pos (Human ESCs [SHEF3]; [6]): 88.6%
- SSEA4 mean (mean fluorescence intensity) (Human ESCs [SHEF3]; [6]): 7578
- Tra1-60 mean (mean fluorescence intensity) (Human ESCs [SHEF3]; [6]): 11955
- SSEA4 % pos (Human ESCs [SHEF3]; [7]): 52.9%
- SSEA4 mean (mean fluorescence intensity) (Human ESCs [SHEF3]; [7]): 465
- Tra1-60 mean (mean fluorescence intensity) (Human ESCs [SHEF3]; [7]): 312
- FOXA2 expressing cells in the entire population (ESCs [SHEF1] [1]; 2 μM 1M or 100 ng/ml Activin A): 35-40%
- HNF4α-expressing cells (ESCs [SHEF1] [1]; 2 μM 1M or 100 ng/ml Activin A): 20%
- FoxA2 positive cells in clusters of cells (ESCs [SHEF1] [1]; 2 μM, within clusters): 73%
- CXCR4 expression by flow cytometry (ESCs [SHEF1] [2]): 53.0%
- NODAL gene expression (ESCs [SHEF1] [3]): increase in NODAL gene expression
